According to PubChem BioAssay AID1845206 (Molecular Pharmacology Branch, DTP, NCI, 2023):

System: NCI-H1618 multicellular tumor spheroid viability
Experiment: Anticancer human tumor NCI-H1618 cell line growth inhibition;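 also: spheroids exposed to agents for 7 days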
Conditions: for IC50: curve of first compound; for viability, T/C: stronger effect = lower value
From the text: Multicellular complex tumor spheroid response to DNA repair inhibitors in combination with DNA-damaging drugs
This study explores the anticancer activities of DNA-damaging drugs and inhibitors of DNA damage repair, both as single agents and in combinations. Complex tumor spheroids comprised of malignant cells, endothelial cells and mesenchymal stem cells served as an in vitro model for human solid tumors. This model system incorporates physiologically relevant features and patient-derived or established malignant cell lines with clinically relevant genetic alterations from many tumor types. Twenty-six patient-derived or established malignant cell lines were evaluated representing sarcoma, melanoma, small cell lung cancer (SCLC), non-small cell lung cancer (NSCLC), as well as bladder, ovarian and pancreatic cancers. The concentration ranges selected for each drug and investigational agent were based upon clinically achievable concentrations if the clinical Cmax of the agent was known.
Compounds. The drugs and compounds olaparib (NSC753686), talazoparib (NSC767125), berzosertib (NSC777718), elimusertib (NSC800525), nedisertib (NSC802822), VX-984 (NSC792969), AZD-1390 (NSC803789), temozolomide (NSC362856), topotecan (NSC609699), trabectedin (NSC813783), staurosporine (NSC755774), and gemcitabine (NSC613327) were obtained from the National Cancer Institute (NCI) Developmental Therapeutics Program Chemical Repository. The FDA-approved anticancer drug set is available from the Developmental Therapeutics Program at https://dtp.cancer.gov/organization/dscb/obtaining/available_plates.htm. […] The stock solutions were prepared in dimethyl sulfoxide (DMSO, Sigma-Aldrich, St. Louis, MO, cat. D2650) at 400-fold the tested concentration and stored at -70 degrees C. Prior to their use, the stock solutions were diluted in fresh medium and the final DMSO concentration in the assay was 0.25% (v/v). All drugs and investigational agents were tested over a range starting from a high concentration at or near the clinical Cmax and decreasing in half-log increments. If the clinical Cmax for an agent had not been determined, the highest concentration tested was 10 microM.
Cell Lines. The patient-derived cancer cell (PDC) lines: 156681-154-R-J1-PDC, 283228-195-R-J1-PDC, 287954-098-R-J1-PDC, 292921-168-R-J2-PDC, 349418-098-R-PDC, 425362-245-T-J1-PDC, 556581-035-R-J1-PDC, and BL0293-F563-PDC were received from the NCI Patient-Derived Models Repository (PDMR, https://pdmr.cancer.gov). The established cell lines HS-SY-2 (RRID:CVCL_8719), MPNST, and SYO-1 (RRID:CVCL_7146) were obtained from the Sloan Kettering Institute. The alveolar soft parts sarcoma cell line ASPS-1 (RRID:CVCL_S738) was established at the NCI and grown from internal seed stocks. The following established cell lines were purchased from the American Type Culture Collection (ATCC, Manassas, VA): G-401 (ATCC, cat. CRL-1441, RRID:CVCL_0270), SW982 (ATCC, cat. HTB-93, RRID:CVCL_1734), VA-ES-BJ (ATCC, cat. CRL-2138, RRID:CVCL_1785), NCI-H719 (ATCC, cat. CRL-5837, RRID:CVCL_1582), NCI-H196 (ATCC, cat. CRL-5823, RRID:CVCL_1509), NCI-H841 (ATCC, cat. CRL-5845, RRID:CVCL_1595), NCI-H1618 (ATCC, cat. CRL-5879, RRID:CVCL_1480), NCI-H1876 (ATCC, cat. CRL-5902, RRID:CVCL_1503), DMS 114 (ATCC, cat. CRL-2066; RRID:CVCL_1174), NCI-H211 (ATCC, cat. CRL-5824; RRID:CVCL_1529), and SW 1271 (ATCC, cat. CRL-2177, RRID:CVCL_1716). The small cell lung cancer cell line COR-L88 was purchased from Sigma-Aldrich (cat. 92031917-1VL, RRID:CVCL_1141). The non-small cell lung cancer cell lines NCI-H226 (RRID:CVCL_1544) and NCI-H322M (RRID:CVCL_1557) were established at the NCI and grown from internal seed stocks. Pooled donor human umbilical vein endothelial cells (HUVEC, Lonza, cat. CC-2519) and human mesenchymal stem cells (hMSC, Lonza, cat. PT-2501) were purchased from Lonza (Walkersville, MD).
Cell Culture. All cells were maintained in an incubator at 37 degrees C and 5% CO2 with 95% humidity. […]

[1] = second compound 0.003 µM, first compound 0.0316 µM
[2] = second compound 0.003 µM, first compound 0.1 µM
[3] = second compound 0.003 µM, first compound 0.316 µM
[4] = second compound 0.003 µM, first compound 1 µM
[5] = second compound 0.003 µM, first compound 3.16 µM
[6] = second compound 0.003 µM, first compound 10 µM
[7] = second compound 0.00949 µM, first compound 0.0316 µM
[8] = second compound 0.00949 µM, first compound 0.1 µM
[9] = second compound 0.00949 µM, first compound 0.316 µM
[10] = second compound 0.00949 µM, first compound 1 µM
[11] = second compound 0.00949 µM, first compound 3.16 µM
[12] = second compound 0.00949 µM, first compound 10 µM
[13] = second compound 0.03 µM, first compound 0.0316 µM
[14] = second compound 0.03 µM, first compound 0.1 µM
[15] = second compound 0.03 µM, first compound 0.316 µM
[16] = second compound 0.03 µM, first compound 1 µM
[17] = second compound 0.03 µM, first compound 3.16 µM
[18] = second compound 0.03 µM, first compound 10 µM
[19] = second compound 0.0949 µM, first compound 0.0316 µM
[20] = second compound 0.0949 µM, first compound 0.1 µM
[21] = second compound 0.0949 µM, first compound 0.316 µM
[22] = second compound 0.0949 µM, first compound 1 µM
[23] = second compound 0.0949 µM, first compound 3.16 µM
[24] = second compound 0.0949 µM, first compound 10 µM
[25] = second compound 0.3 µM, first compound 0.0316 µM
[26] = second compound 0.3 µM, first compound 0.1 µM
[27] = second compound 0.3 µM, first compound 0.316 µM
[28] = second compound 0.3 µM, first compound 1 µM
[29] = second compound 0.3 µM, first compound 3.16 µM
[30] = second compound 0.3 µM, first compound 10 µM

SMILES | IC50 (second compound 0.003 µM) | IC50 (second compound 0.00949 µM) | IC50 (second compound 0.03 µM) | IC50 (second compound 0.0949 µM) | IC50 (second compound 0.3 µM) | viability, T/C [1] | viability, T/C [2] | viability, T/C [3] | viability, T/C [4] | viability, T/C [5] | viability, T/C [6] | viability, T/C [7] | viability, T/C [8] | viability, T/C [9] | viability, T/C [10] | viability, T/C [11] | viability, T/C [12] | viability, T/C [13] | viability, T/C [14] | viability, T/C [15] | further results
Cc1cc(C)c(CNC(=O)c2cc(-c3ccc(CN4CCOCC4)cc3)cc3c2cnn3C2CCCC2)c(=O)[nH]1 + CC[C@@]1(O)C(=O)OCc2c1cc1n(c2=O)Cc2cc3c(CN(C)C)c(O)ccc3nc2-1 | > 10000 nM | < 31.6 nM | < 31.6 nM | < 31.6 nM | < 31.6 nM | 90.8% | 94.2% | 94.5% | 88.5% | 83.1% | 76.2% | 58.5% | 38.5% | 51% | 27.2% | 17.3% | 12.7% | 1.8% | 1.58% | 1.81% | viability, T/C [16]: 1.82%; viability, T/C [17]: 1.84%; viability, T/C [18]: 18.6%; viability, T/C [19]: 1.32%; viability, T/C [20]: 1.44%; viability, T/C [21]: 1.43%; viability, T/C [22]: 2.27%; viability, T/C [23]: 1.46%; viability, T/C [24]: 2.04%; viability, T/C [25]: 19.2%; viability, T/C [26]: 1.25%; viability, T/C [27]: 1.16%; viability, T/C [28]: 1.34%; viability, T/C [29]: 1.57%; viability, T/C [30]: 19.7%
[2H]c1nc(C)nc([2H])c1-c1cc(NC[C@@H](C)c2cccc3c(C(=O)NC)ccnc23)ncn1 + CC[C@@]1(O)C(=O)OCc2c1cc1n(c2=O)Cc2cc3c(CN(C)C)c(O)ccc3nc2-1 | < 31.6 nM | < 31.6 nM | < 31.6 nM | < 31.6 nM | < 31.6 nM | 43.8% | 7.02% | 138% | 158% | 108% | 57.3% | 23% | 4.37% | 42.7% | 109% | 70.8% | 29.9% | 12% | 7.3% | 15.2% | viability, T/C [16]: 21.4%; viability, T/C [17]: 22%; viability, T/C [18]: 26.6%; viability, T/C [19]: 11.4%; viability, T/C [20]: 10.8%; viability, T/C [21]: 3.24%; viability, T/C [22]: 24.5%; viability, T/C [23]: 22.6%; viability, T/C [24]: 21.6%; viability, T/C [25]: 9.96%; viability, T/C [26]: 5.33%; viability, T/C [27]: 2.69%; viability, T/C [28]: 14.1%; viability, T/C [29]: 16.1%; viability, T/C [30]: 4.13%
